Several values for one entry are separate records, joined by “and”; a condition that tells them apart may be missing. Equal entries are not always repeated. Marks after values point to notes of the source that are not given here.
Key:
[1] = Absorption spectroscopy (UV/Vis); format: physicochemical; conditions: pH 7.4
Procedure: (§1) Absorption spectra were recorded with a Varian Cary 4000 UV-Vis double-beam spectrophotometer (Agilent Technologies, USA). For the determination of the absorption spectra, quartz cells with a 1 cm path length were used. Emission spectra and fluorescence quantum yield were obtained on a Quantaurus-QY Absolute PL quantum yield spectrometer C11347 (Hamamatsu Photonics, Japan) or on a Varian Cary Eclipse fluorescence spectrometer (Agilent Technologies, USA).

[2] = Emission spectra and fluorescence quantum yield; format: physicochemical; conditions: pH 7.4
Procedure: as §1

[3] = tested on: vimentin-HaloTag fusion protein in a living HeLa cell; assay: Confocal and STED imaging of vimentin-HaloTag in living cells; format: cell-based; design: key to verified as a label in STED microscopy: verified as a label in super-resolution microscopy based on stimulated emission depletion (STED with 775 nm STED laser); conditions: STED with 775 nm STED laser
Procedure: STED and confocal counterpart images were acquired using the commercially available two-color STED 775 quad scanning microscope from Abberior Instruments (Gottingen, Germany) equipped with an Olympus IX83 microscope stand and an Olympus UplanSApo 100×/1.4 OIL objective. Dyes were excited respective their excitation; the STED laser was pulsed at 775 nm.
For these experiments, STED optical microscopy was performed as indicated above.
The vimentin-HaloTag was labeled with 16-Halo (1 μM for 20 min at growth conditions, 10 min wash) and excited using a pulsed 594 nm laser. Fluorescence was detected in both available detection channels (605-625 nm, 655-715nm) and summed up for the final images. Scale bar: 4 μm; pixel dwell time: 10 μs; pixel size: 20 nm for both the STED and the confocal image. Each line was scanned four times, and the counts were accumulated.

Compound: CCN(CC)CC.CN(CCCCCC(=O)[O-])C(=O)CCP(=O)(O)c1c2ccc(N(C)C)cc2[o+]c2cc(N(C)C)ccc12 [Compound 16, Triethylammonium 6-[3-[[3,6-bis(dimethylamino)-9H-xanthenylium-9-yl]oxidophosphoryl]-N-methylpropanamido]hexanoate]
- ε at absorption max. [1]: 10750 M⁻¹ cm⁻¹
- Emission max. [2]: 636 nm and 636 ^ (0.30)^b nm
- Stokes shift [2]: 33^b nm
- verified as a label in STED microscopy [3]: good^f
